The assay concerns male spontaneously hypertensive rats. The assay can be described thus: Decrease in systolic blood pressure in spontaneously hypertensive rats after intravenous bolus injection, indirect (tail-cuff) method. The format is in vivo, rat. The conditions noted are these: for Decrease in systolic blood pressure (mmHg) time after administration (hour) 0.5: 0.5 hour after administration; for Decrease in systolic blood pressure (mmHg) time after administration (hour) 4: 4 hours after administration. The procedure:
As test animals, four male spontaneously hypertensive rats (weight 400 to 440 g) that were sufficiently adapted for feeding and in which hypertension was confirmed were used.
Physiological saline aqueous solution containing 2.5% Nicolle and 2.5% ethanol of sample was intravenously administered by bolus injection at a dose of 1 ml per 1 kg of body weight. Systolic blood pressure after administration was measured by the indirect (tail-cuff) method.

Structures can show the parent of a compound that is named as a salt.

In the case of `COCC(=O)Oc1cccc(C=CCN2CCC(=C3c4ccccc4C=Cc4ccccc43)CC2)c1.Cl` [Example 369, 4-(5H-Dibenzo[a,d]cyclohepten-5-ylidene)-1-(3-(2-methoxyacetoxy)cinnamyl)piperidine hydrochloride], under “dose 10 mg/kg i.v. bolus”, the “Decrease in systolic blood pressure (mmHg) time after administration (hour) 0.5” value (shortened to “Decrease in systolic blood pressure … (hour) 0.5”) is reported as −101 mmHg and the “Decrease in systolic blood pressure (mmHg) time after administration (hour) 4” value (“Decrease in systolic blood pressure … (hour) 4” below) is listed as −83 mmHg.
`COC(=O)Nc1ccc(C=CCN2CCC(=C3c4ccccc4C=Cc4ccccc43)CC2)cc1.Cl` [Example 378, 4-(5H-Dibenzo[a,d]cyclohepten-5-ylidene)-1-(4-methoxycarbonylaminocinnamyl)piperidine hydrochloride]: under “dose 1 mg/kg i.v. bolus”, the “Decrease in systolic blood pressure … (hour) 0.5” value is recorded as −106 mmHg and the “Decrease in systolic blood pressure … (hour) 4” value was −90 mmHg.
As to `COc1cccc(C=CCN2CCC(=C3c4ccccc4C=Cc4ccccc43)CC2)c1OC.Cl` [Example 193, 4-(5H-Dibenzo[a,d]cyclohepten-5-ylidene)-1-(2-dimethoxycinnamyl)piperidine hydrochloride], for the setting “dose 10 mg/kg i.v. bolus”, the “Decrease in systolic blood pressure … (hour) 0.5” value is reported as −124 mmHg and the “Decrease in systolic blood pressure … (hour) 4” value is listed as −59 mmHg.
Turning to `Cl.O=[N+]([O-])c1ccc(CCCN2CCC(=C3c4ccccc4C=Cc4ccccc43)CC2)cc1` [Example 247, 3-(4-(5H-Dibenzo[a,d]cyclohepten-5-ylidene)-1-piperidinyl)-1-(4-notrophenyl)propane hydrochloride], for the setting “dose 10 mg/kg i.v. bolus”, the “Decrease in systolic blood pressure … (hour) 0.5” value was −119 mmHg and the “Decrease in systolic blood pressure … (hour) 4” value is reported as −40 mmHg.
Regarding `CCCCCCN1CCC(=C2c3ccccc3C=Cc3ccccc32)CC1.Cl` [Example 1, 4-(5H-Dibenzo[a,d]cyclohepten-5-ylidene)-1-hexylpiperidine hydrochloride], under “dose 10 mg/kg i.v. bolus”, the “Decrease in systolic blood pressure … (hour) 0.5” value is reported as −67 mmHg and the “Decrease in systolic blood pressure … (hour) 4” value was determined as 1 mmHg.
On to `Cl.O=C(CCCN1CCC(=C2c3ccccc3C=Cc3ccccc32)CC1)C1CCCCC1` [Example 176, 1-Cyclohexyl-3,(4-(5H-dibenzo[a,d]cyclohepten-5-ylidene)-1-piperidinyl)propylketone hydrochloride], for which, under “dose 10 mg/kg i.v. bolus”, the “Decrease in systolic blood pressure … (hour) 0.5” value is recorded as −105 mmHg and the “Decrease in systolic blood pressure … (hour) 4” value is given as −10 mmHg.
Regarding `CCOC(=O)C(CCN1CCC(=C2c3ccccc3C=Cc3ccccc32)CC1)CC1CCCCC1.Cl` (stereo not shown) [Example 259, Ethyl 2-cyclohexylmethyl-4-(4-(5H-dibenzo[a,d]cyclohepten-5-ylidene)-1-piperidinyl)butyrate hydrochloride], under “dose 10 mg/kg i.v. bolus”, the “Decrease in systolic blood pressure … (hour) 0.5” value is −46 mmHg and the “Decrease in systolic blood pressure … (hour) 4” value was −5 mmHg.
For `C1=Cc2ccccc2C(=C2CCN(CC3CCCCC3)CC2)c2ccccc21.Cl` [Example 7, 1-Cyclohexylmethyl-4-(5H-dibenzo[a,d]cyclohepten-5-ylidene)piperidine hydrochloride], under “dose 10 mg/kg i.v. bolus”, the “Decrease in systolic blood pressure … (hour) 0.5” value is −57 mmHg and the “Decrease in systolic blood pressure … (hour) 4” value is given as −15 mmHg.
Turning to `Cl.O=C1CCCCN1CCCCN1CCC(=C2c3ccccc3C=Cc3ccccc32)CC1` [Example 268, N-(4-(4-(5H-Dibenzo[a,d]cyclohepten-5-ylidene)-1-piperidinyl)-1-butyl)-2-piperidone hydrochloride], where the note is “dose 10 mg/kg i.v. bolus”, the “Decrease in systolic blood pressure … (hour) 0.5” value was −29 mmHg and the “Decrease in systolic blood pressure … (hour) 4” value was found to be 13 mmHg.
In the case of `C1=Cc2ccccc2C(=C2CCN(CCCOc3ccccc3)CC2)c2ccccc21.Cl` [Example 20, 3-(4-(5H-Dibenzo[a,d]cyclohepten-5-ylidene)-1-piperidinyl)-1-phenoxypropane hydrochloride], under “dose 10 mg/kg i.v. bolus”, the “Decrease in systolic blood pressure … (hour) 0.5” value is −37 mmHg and the “Decrease in systolic blood pressure … (hour) 4” value worked out at 2 mmHg.
On to `Cl.O=C(CCCN1CCC(=C2c3ccccc3C=Cc3ccccc32)CC1)c1ccco1` [Example 233, 4-(4-(5H-Dibenzo[a,d]cyclohepten-5-ylidene)-1-piperidinyl)-1-(2-furyl)-1-butanone hydrochloride], for which, where the note is “dose 10 mg/kg i.v. bolus”, the “Decrease in systolic blood pressure … (hour) 0.5” value is −35 mmHg and the “Decrease in systolic blood pressure … (hour) 4” value was −1 mmHg.
For `Cl.c1ccc2c(c1)Sc1ccccc1C2=C1CCN(CCCCC2CCCCC2)CC1` [Example 182], under “dose 10 mg/kg i.v. bolus”, the “Decrease in systolic blood pressure … (hour) 0.5” value is given as −11 mmHg and the “Decrease in systolic blood pressure … (hour) 4” value was −6 mmHg.
In the case of `Cl.Cl.Nc1ccc(C=CCN2CCC(=C3c4ccccc4CCc4ccccc43)CC2)cc1` [Example 351, 1-(4-Aminocinnamyl)-4-(10,11-dihydro-5H-Dibenzo[a,d]cyclohepten-5-ylidene)-1-piperidine dihydrochloride], for the setting “dose 3 mg/kg i.v. bolus”, the “Decrease in systolic blood pressure … (hour) 0.5” value was −70 mmHg and the “Decrease in systolic blood pressure … (hour) 4” value is −21 mmHg.
On to `Cl.N#Cc1ccc(CN2CCC(=C3c4ccccc4C=Cc4ccccc43)CC2)cc1` [Example 160, 1-(4-Cyanobenzyl)-4-(5H-dibenzo[a,d]cyclohepten-5-ylidene)piperidine hydrochloride], for which, where the note is “dose 10 mg/kg i.v. bolus”, the “Decrease in systolic blood pressure … (hour) 0.5” value is reported as −3 mmHg and the “Decrease in systolic blood pressure … (hour) 4” value was −10 mmHg.
On to `COc1ccc(CN2CCC(=C3c4ccccc4C=Cc4ccccc43)CC2)cc1OC.Cl` [Example 174, 4-(5H-Dibenzo[a,d]cyclohepten-5-ylidene)-1-(3,4-dimethoxybenzyl)piperidine hydrochloride], for which, where the note is “dose 10 mg/kg i.v. bolus”, the “Decrease in systolic blood pressure … (hour) 0.5” value is −8 mmHg and the “Decrease in systolic blood pressure … (hour) 4” value is −16 mmHg.
For `C1=Cc2ccccc2C(=C2CCN(CCCCCCc3ccccc3)CC2)c2ccccc21.Cl` [Example 17, 6-(4-(5H-Dibenzo[a,d]cyclohepten-5-ylidene)-1-piperidinyl)-1-phenylhexane hydrochloride], in that order: −84 mmHg and −16 mmHg.
Consider `Cl.O=C(CCCN1CCC(=C2c3ccccc3C=Cc3ccccc32)CC1)N1CCCCC1` [Example 203, 1-(4-(4-(5H-Dibenzo[a,d]cyclohepten-5-ylidene)-1-piperidinyl)butanoyl)piperidine hydrochloride], for which, where the note is “dose 3 mg/kg i.v. bolus”, the “Decrease in systolic blood pressure … (hour) 0.5” value is recorded as −123 mmHg and the “Decrease in systolic blood pressure … (hour) 4” value is recorded as −58 mmHg.
Turning to `COc1cccc(CN2CCC(=C3c4ccccc4C=Cc4ccccc43)CC2)c1.Cl` [Example 118, 4-(5H-Dibenzo[a,d]cyclohepten-5-ylidene)-1-(3-methoxybenzyl)piperidine hydrochloride], where the note is “dose 10 mg/kg i.v. bolus”, the “Decrease in systolic blood pressure … (hour) 0.5” value is reported as −129 mmHg and the “Decrease in systolic blood pressure … (hour) 4” value is −24 mmHg.
As to `Cl.O=[N+]([O-])c1cccc(CN2CCC(=C3c4ccccc4C=Cc4ccccc43)CC2)c1` [Example 142, 4-(5H-Dibenzo[a,d]cyclohepten-5-ylidene)-1-(3-nitrobenzyl)piperidine hydrochloride], for the setting “dose 10 mg/kg i.v. bolus”, the “Decrease in systolic blood pressure … (hour) 0.5” value is listed as −43 mmHg and the “Decrease in systolic blood pressure … (hour) 4” value is 0 mmHg.
For `CC(=O)Nc1ccccc1C=CCN1CCC(=C2c3ccccc3C=Cc3ccccc32)CC1.Cl` [Example 304, 1-(2-Acetylaminocinnamyl)-4-(5H-dibenzo[a,d]cyclohepten-5-ylidene)-1-piperidine hydrochloride], in that order: −49 mmHg and −5 mmHg.
As to `C1=Cc2ccccc2C(=C2CCN(CCCCCC3CCCCC3)CC2)c2ccccc21` [Example 11, 1-Cyclohexyl-5-(4-(5H-dibenzo[a,d]cyclohepten-5-ylidene)-1-piperidinyl)pentane hydrochloride], the “Decrease in systolic blood pressure … (hour) 0.5” value (dose 10 mg/kg i.v. bolus) is given as −166 mmHg.
`COc1ccc(C(=O)C(C)CCN2CCC(=C3c4ccccc4C=Cc4ccccc43)CC2)cc1OC.Cl` (stereo not shown) [Example 274, 4-(4-(5H-Dibenzo[a,d]cyclohepten-5-ylidene)-1-piperidinyl)-2-methyl-3′,4′-dimethoxybutyrophenone hydrochloride]: where the note is “dose 10 mg/kg i.v. bolus”, the “Decrease in systolic blood pressure … (hour) 0.5” value is reported as −102 mmHg and the “Decrease in systolic blood pressure … (hour) 4” value is listed as −21 mmHg.
With `Cl.O=[N+]([O-])c1ccc(C=CCN2CCC(=C3c4ccccc4C=Cc4ccccc43)CC2)cc1` [Example 325, (5H-Dibenzo[a,d]cyclohepten-5-ylidene)-1-(4-nitrocinnamyl)piperidine hydrochloride], under “dose 10 mg/kg i.v. bolus”, the “Decrease in systolic blood pressure … (hour) 0.5” value is given as −115 mmHg and the “Decrease in systolic blood pressure … (hour) 4” value is given as −100 mmHg.
Turning to `Cl.Cl.Nc1ccccc1CCCN1CCC(=C2c3ccccc3C=Cc3ccccc32)CC1` [Example 251, 1-(2-Aminophenyl)-3-(4-(5H-Dibenzo[a,d]cyclohepten-5-ylidene)-1-piperidinyl)propane dihydrochloride], under “dose 10 mg/kg i.v. bolus”, the “Decrease in systolic blood pressure … (hour) 0.5” value is listed as −110 mmHg and the “Decrease in systolic blood pressure … (hour) 4” value was −24 mmHg.
Regarding “2-(2-4-Dibenzo[a,d]cyclohepten-5-ylidene)-1-piperidinyl)-1-ethyl)-5′,6′-dimethoxy-1-indanone hydrochloride [Example 261]”, for the setting “dose 10 mg/kg i.v. bolus”, the “Decrease in systolic blood pressure … (hour) 0.5” value is given as −123 mmHg and the “Decrease in systolic blood pressure … (hour) 4” value was −11 mmHg.

The values above are taken from patent publication USRE38257E1, “Piperdine derivatives and hypotensives containing the same” (Ajinomoto Co., Inc., priority 1988, dated 2003).
